{"source": "patent US7271148B2", "about": "“Inhibition of cellular proteases” (The Board of Regents of The University of Texas System, priority 1999, dated 2007)", "test_system": "p21^cip1 abundance in HCMV-infected LU cells", "assay": "Western blot of p21cip1 abundance in HCMV-infected, density-arrested LU cells", "assay_type": "cell-based, human", "description": "Cell culture and growth arrest. LU cells (3) were propagated in Eagle's minimum essential medium containing 10% fetal bovine serum and penicillin (100 units/ml)/streptomycin (100 μg/ml) in a 5% CO2 in air atmosphere. The cells were density-arrested as described previously in detail (18).\nVirus stocks and productive infection. The AD169 strain of HCMV was propagated in LU cells as previously described in detail (6). The infectivity of virus stocks was determined by plaque assay (3). Virus stocks typically had infectivities between 8.0×10^6 and 4.0×10^7 plaque-forming units (PFU)/milliliter. LU cells were infected with HCMV as described in detail by Bresnahan et al. (18). Virus stocks and cell cultures were routinely examined for mycoplasma.\nWestern blots. Polyclonal or monoclonal antibody for p21^cip1 was obtained from Santa Cruz Biotechnology, Inc. (Santa Cruz, Calif.). Monoclonal antibodies against m-calpain, μ-calpain or calpastatin were generously provided by Dr. R. I. Mellgren (see also 75). Cells were harvested as described previously (18) by dislodging the cells with a cell lifter in phosphate buffered saline. The cells were collected by sedimentation and lysed in NP-40 lysis buffer [50 mM Tris, pH 7.4, 50 mM NaCl, 0.5% NP-40, and 1 mM NaVO3, 50 mM NaF, 1mM phenylmethylsulfonyl fluoride (PMSF), 1 mM dithiothreitol (DTT), 25 μg/ml trypsin inhibitor, 25 μg/ml aprotinin, 1 mM benzamide, and 25 μg/ml pepstatin A added just before use]. Cellular debris was removed by sedimentation and the supernatant fluids were reserved. The protein concentration was determined by the BCA protein assay (Pierce, Rockford, Ill.). Whole cell extracts (40 μg/lane) were fractionated by SDS-polyacrylamide gel electrophoresis (PAGE), and the polypeptides were transferred to nitrocellulose membranes (Bio-Rad Laboratories, Hercules, Calif.) as described previously (18). Antigen-antibody reactions were detected with the enhanced chemiluminescent assay (Amersham Pharmacia Biotech) following the manufacturer's recommendations. […]\nFIGS. 9 and 10. The concentration effect of E64d on p21^cip1 abundance in HCMV-infected cells. 9: LU cells were density arrested as described in Materials and Methods. The cells were HCMV (5 PFU/cell) or mock infected, and at 48 hr PI were treated with selected concentrations of E64d. Whole cell lysates were prepared 6 hr later, and 40 μg of protein from each lysate was resolved by SDS-PAGE. The proteins were transferred to nitrocellulose and probed with antibodies to p21^cip1. Mock: mock-infected cells in the absence of drug. Control, untreated HCMV-infected cells. 0, DMSO solvent control, consisting of HCMV-infected cells treated with the same concentration of DMSO solvent (0.1%) contained in the highest concentration of E64d. 10: Represents the abundance of p21^cip1 determined by densitometric analysis of the data in FIG. 9.\nFIGS. 11 and 12. The concentration effect of Z-Leu-Leu-H on p21^cip1 abundance in HCMV-infected cells. 11. LU cells were density arrested as described in Materials and Methods. The cells were HCMV (5 PFU/cell) infected, and at 48 hr PI were treated with selected concentrations of Z-Leu-Leu-H. Whole cell lysates were prepared 6 hr later, and 40 μg of protein from each lysate was resolved by SDS-PAGE. The proteins were transferred to nitrocellulose and probed with antibodies to p21^cip1. Mock, Control, and 0 are defined as in the legend to FIG. 9. 12 : Represents the abundance of p21^cip1 determined by densitometric analysis of the data in FIG. 11.\nFIGS. 13 and 14. The time course for the effect of E64d on p21^cip1 abundance in HCMV-infected, density-arrested cells. 13: LU cells were density arrested, as described in Materials and Methods. The cells were HCMV (5 PFU/cell) or mock infected, and at the intervals indicated in the Fig., beginning 1 hr after infection, subsets of the cells were treated with E64d (100 μM). […]"}
{"smiles": "CC(C)C[C@H](NC(=O)[C@H]1O[C@@H]1C(=O)O)C(=O)NCCCCN=C(N)N", "note": "(relative stereo) [E64d, trans-epoxysuccinyl-L-leucylamido (4-guanidino)-butane]", "values": [{"measurement": "p21^cip1 abundance as % of that measured in mock-infected cells", "setting": "100 μM, HCMV-infected cells treated at 48 hr PI, lysates 6 hr later", "result": "about 85%"}, {"measurement": "increase in the abundance of p21^cip1", "setting": "E64d 100 μM from 48 hr PI, HCMV-infected cells, after 12 hr of treatment", "result": 4, "unit": "fold"}, {"measurement": "maximum level of p21^cip1 relative to that observed at 0 hr", "setting": "E64d 100 μM from 48 hr PI, HCMV-infected cells, up to 24 hr treatment", "result": "about 84%"}, {"measurement": "p21^cip1 levels versus absence of inhibitor over time course of infection (in words)", "setting": "E64d 100 μM up to 12 hr before harvest, HCMV-infected cells, 3 hr to 96 hr PI", "result": "consistently greater"}, {"measurement": "protection of p21^cip1, concentration effect (in words)", "setting": "HCMV-infected cells treated at 48 hr PI for 6 hr, selected concentrations up to 100 μM", "result": "directly dependent on the concentration"}]}
